Results as given in US7705009B2, “4-aminopyrimidine-5-thione derivatives” (Hoffman-La Roche Inc., priority 2005, dated 2010).
Read-outs that look alike come from different tables or passages of the source.

Assays:
[1] = biological target: human cyclin E-CDK2 (Homo sapiens, UniProt P24941); experiment: CDK2 HTRF kinase assay (Ki measurement); assay type: biochemical
Protocol: (§1) To determine inhibition of Cdk4, Cdk2 and Cdk1 activity, kinase assays were conducted using FlashPlate™ assays (NEN™-Life Science Products). FlashPlate assays were performed using recombinant human cyclin B-CDK1, human cyclin E-CDK2 or human cyclin D1-CDK4 complexes. GST-cyclinE (GST-cycE), CDK2, GST-cyclinB (GST-cycB), CDK1, GST-CDK4 and cyclin D1 (cycD1) cDNA clones in baculovirus vectors were provided by Dr. W. Harper at the Baylor College of Medicine, Houston, Tex.
(§2) Alternatively, inhibition activity may be measured using Ki. […] These were done in 96-well format and read in 384-well plate format. The assays were run at 3× their respective Kms for ATP.
(§3) Twenty microliters were added to the wells of a 96-well plate. […] Blank wells without CDK4 were included. The plates were incubated at 37° C. for 30 minutes with shaking. […] After 30 minutes at 37° C., 15 μl/well of 3 nM Lance-Eu-W1024 labeled anti-rabbit IgG and 60 nM Allophycocyanin conjugated anti-His6 (PerkinElmer Life Sciences) in 25 mM Hepes, pH 7.0, 0.5 mg/ml BSA were added. Following a one hour incubation at 37 deg C., 35 μl of each well, in duplicate, were transferred to 384-well black plates. The plates were read using either ViewLux or Victor V readers (PerkinElmer Life Sciences) using an excitation wavelength of 340 nm and dual emission wavelengths of 615 nm and 665 nm.
(§4) The CDK1 and CDK2 assays were similarly run except for small differences in reagent and protein concentrations:
The compound and enzyme buffers for both assays contained 10 mM MgCl2.

[2] = biological target: human cyclin B-CDK1 (Homo sapiens, UniProt P06493); experiment: CDK1 HTRF kinase assay (Ki measurement); assay type: biochemical; details: ATP at 3x Km
Sequence of human cyclin B-CDK1 (P06493 whole entry): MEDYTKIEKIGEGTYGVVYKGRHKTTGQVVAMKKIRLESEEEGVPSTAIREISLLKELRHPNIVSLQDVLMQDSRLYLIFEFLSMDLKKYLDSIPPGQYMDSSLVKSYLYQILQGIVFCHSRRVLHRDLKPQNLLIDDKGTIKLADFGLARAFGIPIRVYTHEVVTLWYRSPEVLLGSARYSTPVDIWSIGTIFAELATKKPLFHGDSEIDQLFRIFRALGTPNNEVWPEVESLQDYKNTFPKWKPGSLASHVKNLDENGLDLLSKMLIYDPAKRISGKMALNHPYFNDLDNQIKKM
Sequence of human cyclin B-CDK1 (P14635 whole entry partner): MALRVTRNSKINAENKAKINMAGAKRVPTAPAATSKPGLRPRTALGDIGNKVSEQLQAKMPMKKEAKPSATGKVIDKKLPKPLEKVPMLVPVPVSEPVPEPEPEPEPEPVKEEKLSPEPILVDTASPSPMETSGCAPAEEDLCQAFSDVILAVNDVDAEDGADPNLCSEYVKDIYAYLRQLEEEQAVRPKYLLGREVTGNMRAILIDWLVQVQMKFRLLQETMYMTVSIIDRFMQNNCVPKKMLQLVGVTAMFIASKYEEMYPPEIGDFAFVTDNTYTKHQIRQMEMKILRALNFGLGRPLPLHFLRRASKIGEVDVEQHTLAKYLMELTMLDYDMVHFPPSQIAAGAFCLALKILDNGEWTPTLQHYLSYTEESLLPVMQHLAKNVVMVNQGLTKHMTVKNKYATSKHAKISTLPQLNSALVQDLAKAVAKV
Protocol: as §1, §2
as §3, with “nm. […] For ATP competitive inhibitors, the Ki values were calculated according to the following equation: Ki=IC50/(1+S/Km) where S refers to the substrate concentration and Km refers to the Michaelis-Menten constant.” for “nm.”
as §4
The compound and enzyme buffers for both assays contained 10 mM MgCl2. […] CDK1 at a reagent concentration of 0.15 ng/ul and CDK2 at a reagent concentration of 0.06 ng/ul were used.

[3] = biological target: human cyclin D1-CDK4 (Homo sapiens, UniProt P11802); experiment: CDK4 HTRF kinase assay (Ki measurement); assay type: biochemical; details: ATP at 3x Km
Sequence of human cyclin D1-CDK4 (P11802 whole entry): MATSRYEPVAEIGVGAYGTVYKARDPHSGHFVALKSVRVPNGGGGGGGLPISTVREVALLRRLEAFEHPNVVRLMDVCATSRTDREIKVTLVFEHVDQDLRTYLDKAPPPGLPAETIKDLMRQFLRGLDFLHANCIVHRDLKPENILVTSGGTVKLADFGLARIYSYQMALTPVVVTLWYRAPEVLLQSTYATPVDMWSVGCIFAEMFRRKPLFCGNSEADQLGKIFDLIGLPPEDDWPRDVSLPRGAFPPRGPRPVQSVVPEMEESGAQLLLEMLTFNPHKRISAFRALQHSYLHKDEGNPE
Sequence of human cyclin D1-CDK4 (P24385 whole entry partner): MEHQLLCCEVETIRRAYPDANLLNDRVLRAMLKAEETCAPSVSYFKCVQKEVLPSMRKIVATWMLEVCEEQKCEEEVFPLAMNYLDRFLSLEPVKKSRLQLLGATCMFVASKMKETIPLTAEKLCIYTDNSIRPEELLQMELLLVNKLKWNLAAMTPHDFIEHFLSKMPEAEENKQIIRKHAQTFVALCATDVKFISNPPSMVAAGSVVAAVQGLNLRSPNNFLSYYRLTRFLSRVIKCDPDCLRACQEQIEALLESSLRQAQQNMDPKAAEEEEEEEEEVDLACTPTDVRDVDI
Protocol: To determine inhibition of Cdk4, Cdk2 and Cdk1 activity, kinase assays were conducted using FlashPlateTM assays (NENTM-Life Science Products). […] W. Harper at the Baylor College of Medicine, Houston, Tex. Proteins were co-expressed in High FiveTM insect cells and the complex was purified on glutathione Sepharose resin (Pharmacia, Piscataway, N.J.) as previously described (Harper, J. W. et al. Cell 1993, 75, 805-816). A 6×-Histidine tagged […]) was used as the substrate for the cycD1-CDK4, cycB-CDK1 and the cycE-CDK2 assays (the expression plasmid was provided by Dr. Veronica Sullivan, Department of Molecular Virology, Roche Research Centre, Welwyn Garden City, United Kingdom). The Rb protein is a natural substrate for phosphorylation by CDK4, CDK2 and CDK1 (see Herwig and Strauss Eur. J. Biochem. Vol. 246 (1997) pp. 581-601 and the references cited therein). Alternatively, inhibition activity may be measured using Ki. Using the protein constructs described above in Example 19A above, CDK1, CDK2, and CDK4 HTRF assays were set up. These were done in 96-well format and read in 384-well plate format. The assays were run at 3× their respective Kms for ATP. In the CDK4 assay, test compounds were diluted to 3× their final concentrations in 25 mM Hepes, pH 7.0, 6.25 mM MgCl2, 1.5 mM DTT, 135 μM ATP. The DMSO concentration was no greater than 4.76%. Twenty microliters were added to the wells of a 96-well plate. The kinase reaction was initiated by the addition of 40 μl/well of a solution containing 0.185 μM Rb and 2.25 μg/ml CDK4 in 25 mM Hepes, pH 7.0, 6.25 mM MgCl2, 0.003% Tween-20, 0.3 mg/ml BSA, 1.5 mM DTT. Blank wells without CDK4 were included. The plates were incubated at 37° C. for 30 minutes with shaking. The kinase reaction was terminated by the addition of 15 μl/well of 1.6 uM anti-phospho-Rb ([…]) antibody (Cell Signaling Inc.) in 25 mM Hepes, pH 7.0, 24 mM EDTA, 0.2 mg/ml BSA. After 30 minutes at 37° C., 15 μl/well of 3 nM Lance-Eu-W1024 labeled anti-rabbit IgG and 60 nM Allophycocyanin conjugated anti-His6 (PerkinElmer Life Sciences) in 25 mM Hepes, pH 7.0, 0.5 mg/ml BSA were added. Following a one hour incubation at 37 deg C., 35 μl of each well, in duplicate, were transferred to 384-well black plates. The plates were read using either ViewLux or Victor V readers (PerkinElmer Life Sciences) using an excitation wavelength of 340 nm and dual emission wavelengths of 615 nm and 665 nm. IC50 values (the concentration of test compounds reducing the assay control fluorescence read-out by 50%) were first calculated from net readings at 665 nm, normalized for europium readings at 615 nm. For ATP competitive inhibitors, the Ki values were calculated according to the following equation: […]

[4] = test system: HCT116 colorectal carcinoma cell line; experiment: Tetrazolium dye proliferation assay (MTT assay); assay type: cell-based; details: Homo sapiens, HCT-116, HCT116 cells
Protocol: Proliferation was evaluated by the tetrazolium dye assay according to the procedure of Denizot and Lang (Denizot, F. and Lang, R. J Immunol Methods 1986, 89, 271-277). The cell line used was HCT116, a colorectal carcinoma cell line obtained from the American Type Cell Culture Collection (ATCC; Rockville, Md.). The cells were grown in McCoy's 5A medium supplemented with 10% FCS and L-glutamine.
Cells were plated at the appropriate seeding density to give logarithmic growth over the course of the assay in a 96-well tissue culture plate. Plates were incubated overnight at 37° C. in a humidified incubator with 5% CO2. The next day, test compounds were serially diluted to four times the final concentration in the appropriate medium containing 1.2% DMSO. One-fourth final volume of each dilution was added in duplicate to the plates containing cells. The same volume of 1.2% DMSO in medium was added to a row of “control wells” such that the final concentration of DMSO in each well was 0.3%. Wells to which no cells were added served as the “blank.” Wells to which no inhibitor was added served as “no inhibitor control.” The plates were) returned to the incubator, and at set time points (determined by their growth curves) plates were analyzed as described below.
3-(4,5-dimethylthiazole-2-yl)-2,5-diphenyl-2H-tetrazolium bromide (thiazolyl blue; MTT; Sigma) was added to each well to yield a final concentration of 1 mg/ml. Plates were returned to the incubator for 2.5-3 hours at 37° C. The MTT-containing medium was removed and the resulting formazan metabolite was solubilized in 100% ethanol with shaking for 15 minutes at room temperature. Absorbance readings were taken in a microtiter plate reader (Dynatech and Molecular Devices plate readers were used interchangeably) at a wavelength of 570 nm with a 650 nm reference. Percent inhibition (% INH) is calculated by subtracting the absorbance of the blank well from all wells, then subtracting the ratio of the average absorbance of each test duplicate (SAVE) by the average of the controls (CAVE) from 1.00. The final number is then multiplied by 100 (% INH=(1.00−SAVE/CAVE)×100). The concentration at which 50% inhibition of cell proliferation is obtained (the IC50) is determined from the linear regression of a plot of the logarithm of the concentration versus percent inhibition.

[5] = HTRF assay, ATP at 3x Km, read-out: Ki CDK2

Ki [1, 5] [nM]	Ki [2] [nM]	Ki [3] [nM]	IC50 [4] [nM]	Ki [1] [nM]	SMILES
195	261				COc1ccc(F)cc1C(=S)c1cnc(NC2CCN(C(=O)OC(C)(C)C)CC2)nc1N [Example 17, 4-[4-Amino-5-(5-fluoro-2-methoxy-thiobenzoyl)-pyrimidin-2-ylamino]-piperidine-1-carboxylic acid tert-butyl ester]
1		2.8			COc1ccc(F)c(F)c1C(=S)c1cnc(NC2CCN(S(C)(=O)=O)C2)nc1N (centres unmarked) [Example 18, [4-Amino-2-(1-methanesulfonyl-pyrrolidin-3-ylamino)-pyrimidin-5-yl]-(2,3-difluoro-6-methoxy-phenyl)-methanethione]
1	3	3	32		COc1ccc(F)c(F)c1C(=S)c1cnc(Nc2ccc(S(N)(=O)=O)cc2)nc1N [Example 14, 4-[4-Amino-5-(2,3-difluoro-6-methoxy-thiobenzoyl)-pyrimidin-2-ylamino]-benzenesulfonamide]
12	43	10			CS(=O)(=O)N1CCC(Nc2ncc(C(=S)c3cccs3)c(N)n2)CC1 [Example 11, [4-Amino-2-(1-methanesulfonyl-piperidin-4-ylamino)-pyrimidin-5-yl]-thiophen-2-yl-methanethione]
1	3	7			COc1ccc(F)c(F)c1C(=S)c1cnc(Nc2ccc(S(C)(=O)=O)cc2)nc1N [Example 12, [4-Amino-2-(4-methanesulfonyl-phenylamino)-pyrimidin-5-yl]-(2,3-difluoro-6-methoxy-phenyl)-methanethione]
10	27	15			CS(=O)(=O)N1CCC(Nc2ncc(C(=S)c3ccccc3)c(N)n2)CC1 [Example 16, [4-Amino-2-(1-methanesulfonyl-piperidin-4-ylamino)-pyrimidin-5-yl]-phenyl-methanethione]

Further lines, the compound ahead of its results:

SMILES	Ki [1, 5] [nM]	Ki [2] [nM]	Ki [3] [nM]	IC50 [4] [nM]	Ki [1] [nM]
COc1ccc(F)c(F)c1C(=S)c1cnc(NC2CCN(S(=O)(=O)c3ccccn3)CC2)nc1N [Example 10, {4-Amino-2-[1-(pyridine-2-sulfonyl)-piperidin-4-ylamino]-pyrimidin-5-yl}-(2,3-difluoro-6-methoxy-phenyl)-methanethione]	1	3			
COc1ccc(F)c(F)c1C(=S)c1cnc(NC2CCN(S(=O)(=O)CCCN3CCOCC3)CC2)nc1N [Example 9, {4-Amino-2-[1-(3-morpholin-4-yl-propane-1-sulfonyl)-piperidin-4-ylamino]-pyrimidin-5-yl}(2,3-difluoro-6-methoxy-phenyl)-methanethione]	1	14			
COc1ccc(F)cc1C(=S)c1cnc(NCCCNS(C)(=O)=O)nc1N [Example 8, N-{3-[4-Amino-5-(5-fluoro-2-methoxy-thiobenzoyl)-pyrimidin-2-ylamino]-propyl}-methanesulfonamide]	65	89	37		
COc1ccc(F)c(F)c1C(=S)c1cnc(NC2CCN(S(N)(=O)=O)CC2)nc1N [Example 4, 4-[4-Amino-5-(2,3-difluoro-6-methoxy-thiobenzoyl)-pyrimidin-2-ylamino]-piperidine-1-sulfonic acid amide]	< 1	< 3	< 1	3	
COc1ccc(F)cc1C(=S)c1cnc(NC2CCN(S(C)(=O)=O)CC2)nc1N [Example 5, [4-Amino-2-(1-methanesulfonyl-piperidin-4-ylamino)-pyrimidin-5-yl]-(5-fluoro-2-methoxy-phenyl)-methanethione]		< 10	1.3	81	1.3
CS(=O)(=O)N1CCC(Nc2ncc(C(=S)c3c(F)c(F)cc4ncoc34)c(N)n2)CC1 [Example 7, [4-Amino-2-(1-methanesulfonyl-piperidin-4-ylamino)-pyrimidin-5-yl]-(5,6-difluoro-benzooxazol-7-yl)-methanethione]	16	6	5		
COc1ccc(F)c(F)c1C(=S)c1cnc(NC2CCN(S(C)(=O)=O)CC2)nc1N [Example 1, [4-Amino-2-(1-methanesulfonyl-piperidin-4-ylamino)-pyrimidin-5-yl]-(2,3-difluoro-6-methoxy-phenyl)-methanethione]		0.13	0.17	20	
